According to patent publication US6664252B2, “4-aminopyrrolo[2,3-d]pyrimidine compounds specific to adenosine A2a receptor and uses thereof” (OSI Pharmaceuticals, Inc., priority 1999, dated 2003):

Legend:
[1] = biological target: T1, human A1 adenosine receptor (Homo sapiens, UniProt P30542); conditions: reported value; cited from earlier work
T1 sequence (P30542 1-326): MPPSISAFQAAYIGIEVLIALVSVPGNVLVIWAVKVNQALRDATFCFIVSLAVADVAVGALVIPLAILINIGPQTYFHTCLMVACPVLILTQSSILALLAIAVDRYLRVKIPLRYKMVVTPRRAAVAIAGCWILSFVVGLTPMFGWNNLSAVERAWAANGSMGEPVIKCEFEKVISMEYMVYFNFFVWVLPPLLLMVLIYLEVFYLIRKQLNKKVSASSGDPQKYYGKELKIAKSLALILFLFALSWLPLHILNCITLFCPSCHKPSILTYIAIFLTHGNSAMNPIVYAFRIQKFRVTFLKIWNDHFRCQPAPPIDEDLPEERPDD

human adenosine A1 (A1R) = biological target: T2, human adenosine A1 (A1R) (Homo sapiens, UniProt P30542); test: Yeast β-Galactosidase reporter gene assay, inhibition of NECA-induced activity, strain CY12660; type: cell-based; conditions: Table 10
T2 construct: yeast alpha-factor (MFalpha1) prepro leader (N, cleaved yes); expressed in transfected cells; host or cells: Saccharomyces cerevisiae (strain CY12660 and related strains carrying plasmid p5095)
T2 sequence (P30542 1-326): T1 sequence (P30542 1-326)

[2] = biological target: T3, human A2b receptor subtype (Homo sapiens, UniProt P29275); test: Adenosine 2b receptor subtype competition radioligand binding, [3H]DPCPX, HEK293 membranes; conditions: for Ki: Table 14, read-out: Binding Data K1 (nM) A2B
T3 construct: expressed in transfected cells; host or cells: HEK293
T3 sequence (P29275 1-332): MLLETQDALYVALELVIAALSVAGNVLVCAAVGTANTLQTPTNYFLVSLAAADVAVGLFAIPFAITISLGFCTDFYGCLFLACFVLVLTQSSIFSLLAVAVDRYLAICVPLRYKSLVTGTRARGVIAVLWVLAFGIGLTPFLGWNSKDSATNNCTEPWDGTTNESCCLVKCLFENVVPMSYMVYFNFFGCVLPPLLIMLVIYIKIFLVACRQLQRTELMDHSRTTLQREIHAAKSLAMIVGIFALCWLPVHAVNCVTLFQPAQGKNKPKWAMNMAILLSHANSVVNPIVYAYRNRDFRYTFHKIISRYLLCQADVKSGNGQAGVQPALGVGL

[3] = biological target: T4, human A2a receptor subtype (Homo sapiens, UniProt P29274); test: Adenosine 2a receptor subtype competition radioligand binding, [3H]CGS-21680, HEK293 membranes; conditions: Table 13, in %; footnote 8: % activity @ 10 μM
T4 construct: expressed in transfected cells; host or cells: HEK-293 (Cadus clone #5)

[4] = biological target: T5, human A1 receptor subtype (Homo sapiens, UniProt P30542); conditions: Table 13, in %; footnote 8: % activity @ 10 μM
T5 sequence (P30542 1-326): T1 sequence (P30542 1-326)

[5] = biological target: T6, human A3 receptor subtype (Homo sapiens, UniProt P0DMS8); test: Adenosine 3 receptor competition radioligand binding, [125I]AB-MECA, HEK293 membranes; conditions: Table 14; read-out: Binding Data K1 (nM) A3
T6 construct: expressed in transfected cells; host or cells: HEK293
T6 sequence (P0DMS8 1-318): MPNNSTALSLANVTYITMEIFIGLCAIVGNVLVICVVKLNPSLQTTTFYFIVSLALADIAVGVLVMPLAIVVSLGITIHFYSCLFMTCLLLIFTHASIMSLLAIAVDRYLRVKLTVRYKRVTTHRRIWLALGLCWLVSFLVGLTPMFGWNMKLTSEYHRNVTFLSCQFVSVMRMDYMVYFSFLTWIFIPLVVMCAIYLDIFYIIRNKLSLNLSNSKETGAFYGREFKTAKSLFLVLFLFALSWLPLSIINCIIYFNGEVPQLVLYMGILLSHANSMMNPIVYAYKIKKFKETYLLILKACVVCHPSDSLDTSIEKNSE

T4 sequence (P29274 whole entry): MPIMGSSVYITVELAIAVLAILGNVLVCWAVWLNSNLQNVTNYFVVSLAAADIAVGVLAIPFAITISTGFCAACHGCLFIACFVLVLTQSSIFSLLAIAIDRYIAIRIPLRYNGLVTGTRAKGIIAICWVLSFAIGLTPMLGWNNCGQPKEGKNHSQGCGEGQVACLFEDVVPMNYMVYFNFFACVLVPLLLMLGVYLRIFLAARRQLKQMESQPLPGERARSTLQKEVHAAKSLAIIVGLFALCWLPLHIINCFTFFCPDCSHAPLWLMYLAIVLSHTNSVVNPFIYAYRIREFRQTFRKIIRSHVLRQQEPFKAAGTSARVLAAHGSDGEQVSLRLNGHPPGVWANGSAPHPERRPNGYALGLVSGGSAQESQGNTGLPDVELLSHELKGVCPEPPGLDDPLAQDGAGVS

CC(Cc1ccccc1)Nc1ncnc2c1ncn2[C@@H]1O[C@H](CO)[C@@H](O)[C@H]1O (single isomer, unassigned; (-)) [R-PIA, (−)-N6-(2-phenylisopropyl)-adenosine]
reported affinity [1]: approximately 50 nM

CC(=O)NCCNc1nc(-c2ccccc2)nc2[nH]c(COc3ccccc3)cc12 [(25), 4-(2-acetylaminoethyl)amino-6-phenoxymethyl-2-phenyl-7H-pyrrolo[2,3d]pyrimidine]
melting point: 196 to 197 °C

Cc1[nH]c2nc(-c3ccccc3)nc(NCCN)c2c1C [Compound 1000]
IC50 (human adenosine A1 (A1R)): > 10000 nM

Cc1[nH]c2nc(-c3ccccc3)nc(NCCNS(C)(=O)=O)c2c1C [Compound 1007]
IC50 (human adenosine A1 (A1R)): > 10000 nM

Cc1[nH]c2nc(-c3ccccc3)nc(NCCNC(=O)CCN)c2c1C [Compound 1009]
IC50 (human adenosine A1 (A1R)): > 10000 nM

Cc1[nH]c2nc(-c3ccccc3)nc(N[C@H]3CC[C@H](O)CC3)c2c1C [Compound 1305]
% activity, A2b binding ([2]; Table 13, in %, footnote 8: % activity @ 10 μM): 30%

CNC(=O)NCCCNc1nc(-c2ccccc2)nc2[nH]c(C)c(C)c12 [Compound 1310]
% activity, A2a binding [3]: 76%

Cc1[nH]c2nc(-c3ccccc3)nc(NCCNC(=O)C3(N)CC3)c2c1C [Compound 1313]
% activity, A2a binding [3]: 65%
% activity, A1 binding [4]: 30%

CC(=O)NCCNc1nc(-c2ccccc2)nc2[nH]c(COc3ccccc3)cc12 [Compound 1400, 4-(2-acetylaminoethyl)amino-6-phenoxymethyl-2-phenyl-7H-pyrrolo[2,3d]pyrimidine]
Ki [2]: 10.3 nM

CC(=O)NCCNc1nc(-c2ccccc2)nc2[nH]c(COc3ccc(F)cc3)cc12 [Compound 1401, 4-(2-acetylaminoethyl)amino-6-(4-fluorophenoxy)methyl-2-phenyl-7H-pyrrolo[2,3d]pyrimidine]
Ki [2]: 8.8 nM

CC(=O)NCCNc1nc(-c2ccccc2)nc2[nH]c(COc3ccc(Cl)cc3)cc12 [Compound 1402, 4-(2-acetylaminoethyl)amino-6-(4-chlorophenoxy)methyl-2-phenyl-7H-pyrrolo[2,3d]pyrimidine]
Ki [5]: 60 nM

OC[C@H]1CCCN1c1nc(-c2ccncc2)nc2[nH]ccc12 [Compound 1601]
melting point: 210 to 220 °C (dec.)

NC(=O)[C@H]1CCCN1c1nc(-c2ccncc2)nc2[nH]c(-c3ccccc3)cc12 [Compound 1609, 1-(6-Phenyl-2-pyridin-4-yl-7H-pyrrolo[2,3-d]pyrimidin-4-yl]-pyrrolidine-2-carboxylic acid amide]
melting point: 280 to 316 °C (dec.)
